Key:
[1] = biological target: EGFR (UniProt P00533)
[2] = biological target: EGFR (human) (UniProt P00533); settings: kb
[3] = biological target: EGFR (UniProt P00533); remark: listed apart in the source
[4] = biological target: MAPK14 (UniProt Q16539); test: Enzyme Assay
[5] = tested on: MAPK14 (Balb/c mice); test: Cell-Based Assay; settings: peritoneal macrophage
[6] = biological target: CDK2 (human) (UniProt P24941)
[7] = biological target: EGFR (UniProt P00533); settings: concentration not given here
[8] = biological target: CDK2 (UniProt P24941); test: Enzyme Assay
[9] = biological target: EGFR (UniProt P00533); remark: listed apart in the source
[10] = biological target: EGFR (human) (UniProt P00533)
[11] = biological target: EGFR (human) (UniProt P00533); settings: kb; remark: listed apart in the source
[12] = biological target: EGFR (human) (UniProt P00533); remark: listed apart in the source
[13] = biological target: EGFR (human) (UniProt P00533); remark: listed apart in the source
[14] = biological target: EGFR (UniProt P00533); settings: concentration not given here; remark: listed apart in the source
[15] = tested on: MAPK14 (Balb/c mice); test: Animal Model; settings: dose or concentration not given here
[16] = biological target: EGFR (murine) (UniProt P00533); settings: nih3t3
[17] = biological target: EGFR (human) (UniProt P00533); settings: a431
[18] = biological target: EGFR (human) (UniProt P00533); remark: listed apart in the source
[19] = biological target: EGFR (human) (UniProt P00533); settings: kb; remark: listed apart in the source
[20] = biological target: EGFR (human) (UniProt P00533); settings: hn5
[21] = biological target: CDK2 (human) (UniProt P24941); test: Enzyme Assay
[22] = biological target: CDK2 (human) (UniProt P24941); test: Enzyme Assay; remark: listed apart in the source
[23] = biological target: EGFR (UniProt P00533); remark: listed apart in the source
[24] = biological target: CDK2 (human) (UniProt P24941); test: Enzyme Assay; remark: listed apart in the source
[25] = biological target: CDK2 (human) (UniProt P24941); test: Enzyme Assay; remark: listed apart in the source
[26] = biological target: CDK2 (human) (UniProt P24941); test: Enzyme Assay; remark: listed apart in the source
[27] = biological target: EGFR (UniProt P00533); remark: listed apart in the source
[28] = biological target: ROCK2 (human) (UniProt O75116); test: Inhibition of ROCK2 Kinase Activity; settings: concentration not given here
[29] = biological target: EGFR (human) (UniProt P00533); settings: concentration not given here
[30] = biological target: EGFR (UniProt P00533); remark: listed apart in the source
[31] = biological target: EGFR (human) (UniProt P00533); settings: a431; remark: listed apart in the source
[32] = biological target: EGFR (human) (UniProt P00533); remark: listed apart in the source
[33] = biological target: EGFR (human) (UniProt P00533); settings: kb; remark: listed apart in the source
[34] = biological target: EGFR (human) (UniProt P00533); remark: listed apart in the source
[35] = biological target: EGFR (human) (UniProt P00533); remark: listed apart in the source
[36] = biological target: EGFR (human) (UniProt P00533); settings: difi
[37] = biological target: EGFR (UniProt P00533); remark: listed apart in the source
[38] = biological target: EGFR (human) (UniProt P00533); remark: listed apart in the source
[39] = biological target: EGFR (human) (UniProt P00533); settings: a431; remark: listed apart in the source
[40] = biological target: EGFR (human) (UniProt P00533); settings: kb; remark: listed apart in the source
[41] = biological target: EGFR (human) (UniProt P00533); settings: kb; remark: listed apart in the source
[42] = biological target: CDK2 (UniProt P24941); test: Enzyme Assay; remark: listed apart in the source
[43] = biological target: CDK2 (UniProt P24941)
[44] = biological target: EGFR (human) (UniProt P00533); remark: listed apart in the source
[45] = biological target: ROCK2 (bovine) (UniProt Q28021); test: Inhibition of RHO-Associated Coiled-Coil-Containing Protein Kinase 2 Activity
[46] = biological target: EGFR (human) (UniProt P00533); settings: a431; remark: listed apart in the source
[47] = biological target: ROCK2 (human) (UniProt O75116); test: Assessment of ROCK2 Kinase Acitvity
[48] = biological target: CDK2 (human) (UniProt P24941); remark: listed apart in the source
[49] = biological target: EGFR (mouse) (UniProt P00533); settings: mk
[50] = biological target: EGFR (murine) (UniProt P00533); settings: 32 d
[51] = tested on: EGFR (murine), P00533 [Antiproliferation of 32D/EGFRvIII Cells]
[52] = biological target: EGFR (human) (UniProt P00533); settings: nih3t3
[53] = biological target: EGFR (human) (UniProt P00533); settings: huvec
[54] = biological target: EGFR (human) (UniProt P00533); settings: a431; remark: listed apart in the source
[55] = biological target: EGFR (human) (UniProt P00533); remark: listed apart in the source
[56] = biological target: EGFR (human) (UniProt P00533); remark: listed apart in the source
[57] = biological target: EGFR (UniProt P00533); remark: listed apart in the source
[58] = biological target: EGFR (human) (UniProt P00533); remark: listed apart in the source
[59] = biological target: EGFR (human) (UniProt P00533); settings: concentration not given here; remark: listed apart in the source
[60] = biological target: PIK3CA (UniProt P42336)
[61] = biological target: EGFR (human) (UniProt P00533); remark: listed apart in the source
[62] = biological target: EGFR (human) (UniProt P00533); settings: A431
[63] = biological target: EGFR (human) (UniProt P00533); remark: listed apart in the source
[64] = biological target: EGFR (human) (UniProt P00533); settings: A431; remark: listed apart in the source
[65] = biological target: EGFR (human) (UniProt P00533); remark: listed apart in the source

EGFR (human), sequence (P00533 whole entry, looked up): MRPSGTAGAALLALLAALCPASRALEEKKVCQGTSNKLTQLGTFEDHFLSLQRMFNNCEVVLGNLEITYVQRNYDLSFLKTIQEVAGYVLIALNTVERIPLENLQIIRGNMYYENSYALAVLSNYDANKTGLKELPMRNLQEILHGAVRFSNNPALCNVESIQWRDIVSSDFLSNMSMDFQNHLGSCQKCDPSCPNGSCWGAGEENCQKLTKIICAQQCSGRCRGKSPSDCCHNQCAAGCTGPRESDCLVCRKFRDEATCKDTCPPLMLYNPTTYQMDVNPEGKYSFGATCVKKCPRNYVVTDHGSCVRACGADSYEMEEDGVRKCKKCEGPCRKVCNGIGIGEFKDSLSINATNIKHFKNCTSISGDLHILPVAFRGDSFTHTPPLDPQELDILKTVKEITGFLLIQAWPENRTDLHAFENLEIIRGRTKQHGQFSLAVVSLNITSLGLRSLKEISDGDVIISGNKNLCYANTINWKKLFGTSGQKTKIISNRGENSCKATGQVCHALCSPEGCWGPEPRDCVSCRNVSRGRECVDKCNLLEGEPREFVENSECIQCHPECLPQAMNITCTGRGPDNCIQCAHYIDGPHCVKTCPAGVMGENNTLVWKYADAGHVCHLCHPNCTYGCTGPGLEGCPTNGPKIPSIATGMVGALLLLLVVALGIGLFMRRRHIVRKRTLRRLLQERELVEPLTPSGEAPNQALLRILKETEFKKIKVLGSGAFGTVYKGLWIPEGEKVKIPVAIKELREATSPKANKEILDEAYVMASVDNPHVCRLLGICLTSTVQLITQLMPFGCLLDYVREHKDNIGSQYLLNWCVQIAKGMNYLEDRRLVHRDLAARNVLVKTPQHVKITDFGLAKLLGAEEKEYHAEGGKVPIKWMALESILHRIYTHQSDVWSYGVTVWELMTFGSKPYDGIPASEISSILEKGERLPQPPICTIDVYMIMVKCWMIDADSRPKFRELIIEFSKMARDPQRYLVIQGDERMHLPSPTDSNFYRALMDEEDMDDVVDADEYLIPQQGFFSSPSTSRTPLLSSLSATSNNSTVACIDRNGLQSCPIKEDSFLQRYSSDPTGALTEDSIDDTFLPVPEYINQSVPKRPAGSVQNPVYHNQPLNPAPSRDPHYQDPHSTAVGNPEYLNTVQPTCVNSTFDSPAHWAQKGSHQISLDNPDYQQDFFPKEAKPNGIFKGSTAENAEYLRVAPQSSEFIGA
EGFR, sequence (P00533 whole entry, looked up): as above
ROCK2 (human), sequence (O75116 whole entry, looked up): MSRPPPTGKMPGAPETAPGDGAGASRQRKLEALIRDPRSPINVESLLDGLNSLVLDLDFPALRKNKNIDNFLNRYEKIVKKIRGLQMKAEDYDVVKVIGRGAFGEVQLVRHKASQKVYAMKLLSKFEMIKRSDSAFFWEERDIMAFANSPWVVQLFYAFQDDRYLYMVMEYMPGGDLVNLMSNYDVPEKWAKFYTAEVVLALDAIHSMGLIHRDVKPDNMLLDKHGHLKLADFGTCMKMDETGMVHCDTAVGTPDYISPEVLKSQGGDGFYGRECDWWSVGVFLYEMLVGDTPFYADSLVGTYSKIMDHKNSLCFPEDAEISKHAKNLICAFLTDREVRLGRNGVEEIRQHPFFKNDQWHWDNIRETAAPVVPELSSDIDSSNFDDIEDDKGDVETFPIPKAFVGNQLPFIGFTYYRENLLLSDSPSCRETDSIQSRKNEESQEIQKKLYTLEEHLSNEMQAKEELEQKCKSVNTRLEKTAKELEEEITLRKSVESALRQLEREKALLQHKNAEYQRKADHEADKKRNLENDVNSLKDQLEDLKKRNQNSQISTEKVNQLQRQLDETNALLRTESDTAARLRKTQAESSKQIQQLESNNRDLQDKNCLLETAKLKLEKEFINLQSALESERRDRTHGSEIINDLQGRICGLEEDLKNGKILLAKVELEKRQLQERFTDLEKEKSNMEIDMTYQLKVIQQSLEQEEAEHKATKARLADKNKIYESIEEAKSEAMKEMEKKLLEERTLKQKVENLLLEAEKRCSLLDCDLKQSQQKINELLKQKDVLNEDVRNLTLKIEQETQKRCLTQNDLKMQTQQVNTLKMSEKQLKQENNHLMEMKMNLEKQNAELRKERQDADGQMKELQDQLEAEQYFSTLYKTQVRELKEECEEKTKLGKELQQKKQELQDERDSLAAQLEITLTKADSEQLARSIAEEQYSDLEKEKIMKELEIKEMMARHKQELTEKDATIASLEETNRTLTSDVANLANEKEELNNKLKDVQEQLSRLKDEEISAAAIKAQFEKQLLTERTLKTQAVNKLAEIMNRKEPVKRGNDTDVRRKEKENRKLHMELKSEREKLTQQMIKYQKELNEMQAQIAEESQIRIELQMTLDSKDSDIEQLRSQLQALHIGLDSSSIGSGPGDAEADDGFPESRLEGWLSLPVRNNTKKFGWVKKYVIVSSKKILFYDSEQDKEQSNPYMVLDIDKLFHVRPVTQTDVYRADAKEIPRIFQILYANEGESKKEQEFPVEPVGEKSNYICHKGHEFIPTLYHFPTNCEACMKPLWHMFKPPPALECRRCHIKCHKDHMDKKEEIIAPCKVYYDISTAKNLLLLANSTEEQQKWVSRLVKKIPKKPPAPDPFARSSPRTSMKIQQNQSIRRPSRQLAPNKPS
EGFR (murine), sequence (P00533 whole entry, looked up): as the sequence (P00533 whole entry, looked up) above

SMILES: Fc1cccc(COc2ccc(Nc3ncncc3I)cc2Cl)c1
- IC50 [1]: 0.32 µM

SMILES: COc1cc(OC2CCN(C)CC2)c2c(Nc3ccc(F)c(Cl)c3)ncnc2c1
- IC50 [2]: 0.087 µM

SMILES: CCOC(=O)c1cn2ncnc(Nc3ccc4c(cnn4Cc4ccccc4)c3)c2c1CC
- IC50 [3]: 0.2 µM

SMILES: OCCC#Cc1nc(-c2ccc(F)cc2)c(-c2ccncc2)n1CCCc1ccccc1
- IC50 [4]: 0.0161 µM
- IC50 [5]: 0.0192 µM

SMILES: NC(=O)c1c(NC(=O)CN2C(=O)CCC2=O)sc2c1CCC2
- IC50 [6]: 8 µM

SMILES: CN1CCN(Cc2ccc(Nc3nc4ncc(C#N)c(Nc5ccc(Oc6ccccc6)cc5)c4s3)cc2)CC1
- inhibition [7]: 0%

SMILES: COc1cc(OC)c(/C=C/S(=O)(=O)Cc2ccc(OC)c(NC(C)C(=O)O)c2)c(OC)c1 (configuration not stated)
- IC50 [8]: > 10 µM
- IC50 [9]: 8 µM

SMILES: COc1cc2ncnc(Nc3cccc(Cl)c3F)c2cc1OC1CCN(C(=O)OCCN2CCCCC2)CC1
- IC50 [10]: 0.002 µM
- IC50 [11]: 0.01 µM

SMILES: CN(C)N=Cc1c(N)ncnc1Nc1ccc2c(cnn2Cc2cccc(F)c2)c1
- IC50 [12]: 0.0082 µM
- IC50 [13]: 0.009 µM

SMILES: CC(C)(C)c1ccc(Nc2nnc(-c3ccc(C(N)=O)cc3)c3ccccc23)cc1
- inhibition [14]: 14%

SMILES: Cc1cc(-c2[nH]c(-c3ccc([S+](C)[O-])cc3)nc2-c2ccc(F)cc2)ccn1 (configuration not stated)
- difference [15]: -64%
- IC50 [4]: 0.37 µM

SMILES: COc1ccccc1Oc1cccc2nc(N)nc(N)c12
- IC50 [16]: > 100 µM

SMILES: CCOc1cc2ncc(C#N)c(Nc3ccc(OCc4ccccn4)c(Cl)c3)c2cc1NC(=O)/C=C/CNC
- IC50 [17]: 0.067 µM

SMILES: COc1cc2ncnc(Nc3cccc(Cl)c3F)c2cc1CN(C)C1(C(N)=O)CCN(S(C)(=O)=O)CC1
- IC50 [18]: 0.009 µM
- IC50 [19]: 0.091 µM

SMILES: NC(=O)O[C@H]1CN[C@H](C#Cc2cc3ncnc(Nc4ccc(OCc5cccc(F)c5)c(Cl)c4)c3s2)C1
- EC50 [20]: 0.1 µM

SMILES: CCC(C)Cn1c(=O)cc(C)c2cnc(Nc3ccc(N4CCNCC4)cc3)nc21 (configuration not stated)
- IC50 [21]: > 5 µM
- IC50 [22]: > 5 µM

SMILES: COC(=O)c1ccc(NCc2cc(O)ccc2O)cc1
- IC50 [23]: 0.25 µM

SMILES: COCCCNS(=O)(=O)c1ccc(Nc2nccc(-c3cnc4ccccn34)n2)cc1
- IC50 [21]: 0.004 µM
- IC50 [24]: 0.003 µM
- IC50 [25]: 0.034 µM
- IC50 [26]: 0.084 µM

SMILES: c1ccc(-c2cnc(Nc3ccc(OCCN4CCCC4)cc3)s2)cc1
- IC50 [27]: > 10 µM

SMILES: CCCOC(=O)c1c[nH]c2c(=O)[nH]c3ccc(S(=O)(=O)C4CC[C@H](N)C4)cc3c12 (some centres not stated)
- inhibition [28]: 3%
- inhibition [29]: 3%

SMILES: CCc1cccc(CC)c1NC(=O)N1Cc2[nH]nc(NC(=O)c3ccc(N4CCN(C)CC4)cc3)c2C1
- IC50 [8]: > 10 µM
- IC50 [30]: > 10 µM

SMILES: CC(C)C[C@@H]1NC(=O)[C@H](CC(C(=O)O)C(=O)O)NC(=O)C[S+]([O-])C[C@@H](C(N)=O)NC(=O)CCCCNC(=O)[C@H](CC(N)=O)NC(=O)C2(CCCCC2)NC(=O)[C@H](Cc2ccc(O)c(N)c2)NC1=O (some centres not stated)
- IC50 [31]: 100 µM

SMILES: CCN(CC)Cc1ccc(-c2cc3c(N[C@H](C)c4ccccc4)ncnc3[nH]2)cc1
- IC50 [32]: 0.004 µM

SMILES: Fc1ccc(Nc2ncnc3ccc(-c4ccc(CCN5CCOCC5)s4)cc23)cc1Cl
- IC50 [33]: 0.19 µM

SMILES: CN(C)CC(=O)N1CCC[C@@H]1COc1cccc2ncnc(Nc3ccc(OCc4cncs4)c(Cl)c3)c12
- IC50 [34]: 0.26 µM

SMILES: COc1cc2c(cc1OC)Oc1ncnc(Oc3ccc(F)c(Cl)c3)c1NC2
- IC50 [35]: 1.2 µM
- IC50 [36]: 6.1 µM

SMILES: CNc1ncc(-c2ccc(C(=O)N[C@H](CN)Cc3ccc(Cl)cc3Cl)s2)cn1
- IC50 [37]: > 10 µM

SMILES: CCN(CC)CC1CCN(c2ncc3ncnc(Nc4ccc(F)c(Cl)c4)c3n2)CC1
- IC50 [38]: 0.003 µM
- EC50 [39]: 0.122 µM
- EC50 [40]: 0.225 µM

SMILES: CN1CCC(Oc2cccc3ncnc(Nc4ccc(OCc5cccc(F)c5)c(Cl)c4)c23)CC1
- IC50 [41]: 2.5 µM

SMILES: NC1=NC(=O)/C(=C2\CCNC(=O)c3[nH]c(Br)cc32)N1
- IC50 [42]: 0.04 µM
- IC50 [8]: 0.04 µM
- IC50 [21]: 0.04 µM
- IC50 [43]: 0.07 µM

SMILES: CN(C(=O)C1CCCCC1)c1ccc2c(c1)nc(NC(=O)c1cccs1)n2CCC(N)=O
- inhibition ([21]; concentration not given here): 7%
- inhibition [28]: -1%
- IC50 [44]: > 6 µM

SMILES: CC(C)c1ccc(CN2CCCC(Nc3cccc4cnccc34)C2)cc1 (configuration not stated)
- IC50 [45]: 0.53 µM

SMILES: O=C1NC(=O)N(CCc2ccccc2)/C1=C/c1ccc(O)cc1
- IC50 [46]: 27 µM

SMILES: NC[C@@](O)(c1ccc(Cl)cc1)c1ccc(-c2cn[nH]c2)cc1
- IC50 [47]: < 0.01 µM

SMILES: NC(=O)c1sc(-c2ccsc2)cc1N
- IC50 [48]: 61 µM

SMILES: CCN1CCN(Cc2ccc(-c3cc4c(N[C@H](C)c5ccccc5)ncnc4[nH]3)cc2)CC1
- IC50 [49]: 0.056 µM
- IC50 [50]: 0.3 µM
- IC50 [51]: 0.01 µM

SMILES: Cc1cc(Nc2ncnc3ccc(N4CCOCC4)cc23)ccc1OC1CCN(C(=O)CC(C)(C)C)CC1
- IC50 [52]: > 10 µM

SMILES: COc1cc2c(Nc3ccc(Br)cc3F)ncnc2cc1OCC1CCN(C(=O)CN(C)C)CC1
- IC50 [53]: 0.1 µM

SMILES: C=CC(=O)Cc1ccc2ncnc(Nc3cccc(Br)c3)c2c1
- IC50 [54]: 12.6 µM

SMILES: CCOCOc1cc(OCOCC)c2c(c1Cl)CC(=O)C=CCCC=CC[C@H](c1ccccc1)OC2=O
- IC50 [55]: 33 µM

SMILES: COc1cc2ncc(C#N)c(Nc3cccc(C)c3)c2cc1OC
- Ki [56]: 0.044 µM

SMILES: COCCN(C)CCOc1ccc2[nH]c(-c3cc4ccccc4[nH]c3=O)cc2c1
- IC50 [57]: 8.58 µM

SMILES: CN1CCN(c2ccc3[nH]c(-c4cc(-c5ccc(NC(=O)Nc6cccc(Cl)c6)cc5)[nH]n4)nc3c2)CC1
- IC50 [58]: ≥ 5 µM

SMILES: N#Cc1cnc2sc(C(=O)Nc3ccc(NCCCN4CCOCC4)cc3)c3c2c1N(c1c(Cl)ccc2c1OCO2)C(=O)N3
- inhibition [59]: 11%

SMILES: O=c1cc(N2CCOCC2)oc2c(-c3cccc4c3sc3ccccc34)cccc12
- IC50 [60]: 5 µM

SMILES: Nc1nc(Nc2ccc(S(N)(=O)=O)cc2)nn1C(=O)c1c(F)cccc1F
- IC50 [61]: > 100 µM
- IC50 [62]: > 100 µM
- IC50 [63]: > 10 µM

SMILES: CCc1cc2cccc(C#CCCc3ccccc3)c2cc1CC
- IC50 [64]: 0.014 µM

SMILES: COc1cc2c(Nc3ncc(CCNC(=O)c4cccc(F)c4)s3)ncnc2cc1OCCCN1CCCC1
- IC50 [65]: > 100 µM

From the Kinase Knowledgebase extract (Sharma et al. 2016)
